According to patent US5281628A, “9-amino-7-(substituted)-6-demethyl-6-deoxytetracyclines” (American Cyanamid Company, priority 1991, dated 1994):
Where a name gives a salt, the structure may show the parent alone.

Experiments:
[1] = system: E. coli S30 Ribosomes, Wild Type (tetracycline sensitive); assay: In vitro protein translation with E. coli S30 ribosomes, wild type; type: biochemical
Procedure: (§1) The E. coli in vitro translation system can be used to study not only the mechanism of protein translation itself, but also the effect that various compounds may have on protein synthesis. The system can be set up to function as a coupled transcription and translation system or as a translation only system depending on whether DNA or RNA is added to initiate protein synthesis. In this way, compounds affecting either RNA synthesis and/or protein synthesis can be studied. Protein synthesis is monitored by the incorporation of radiolabeled amino acids into trichloroacetic acid precipitable material. The system used is based upon literature methods [G. Zubay, Ann. Rev. Genet., 7: 267-287(1973) and J. Collins, Gene, 6: 28-42 (1979)].
(§2) The system used to study tetracycline protein synthesis inhibition is as follows:
(§3) An S30 extract (supernatant from a 30,000×G centrifugation of lysed cells) of either tetracycline sensitive or tetracycline resistant (tetM+) cells is combined with a mixture of low molecular weight compounds required for protein synthesis which include a mixture of 19 amino acids, methionine, ^35 S-methionine, plasmid template DNA and either dimethylsulfoxide (DMSO) or the tetracycline to be tested dissolved and diluted in DMSO. This mixture is incubated at 37° C. for 30 minutes. Following the incubation, 2.5 μl of the 10 μl reaction is removed and added to 0.5 ml of 1N sodium hydroxide. The solution is incubated an additional 15 minutes at 37° C., to destroy any m-RNA and t-RNA. The incorporation of ^35 S-methionine is determined by precipitating the high molecular weight material in the sodium hydroxide aliquot with trichloroacetic acid (TCA), collecting the precipitated material on Whatman G/FC filters, drying the filters and counting the radioactivity retained on the filter. Percent inhibition (P.I.) of protein synthesis is determined by the following equation: [formula]

[2] = system: S. aureus UBMS 90-3 (tetracycline-sensitive); assay: MIC, microtiter broth dilution; type: cell-based; settings: Staphylococcus aureus, 18 h, no cysteine stated
Procedure: (§4) The minimum inhibitory concentration (MIC), the lowest concentration of the antibiotic which inhibits growth of the test organism, is determined by the microtiter broth dilution method using 0.1 ml Muller-Hinton II broth (Baltimore Biological Laboratories) per well. A suitable oxygen scavenger (i.e., cysteine or dithiothreitol) is added to the assay medium for the testing of compounds according to Formula I because of the sensitivity of those compounds to oxidation. An inoculum level of 1-5×10^5 CFU/ml and a range of antibiotic concentrations (32 0.004 μg/ml) are used.

[3] = system: Coagulase negative staphylococci CI 535; assay: MIC, microtiter broth dilution; type: cell-based; settings: 18 h, no cysteine stated
Procedure: as §4

[4] = system: S. aureus UBMS 88-4 (tetracycline-sensitive); assay: MIC, microtiter broth dilution; type: cell-based; settings: Staphylococcus aureus, 18 h, no cysteine stated
Procedure: as §4

[5] = system: E. faecalis 12201 (vancomycin-resistant); assay: MIC, microtiter broth dilution; type: cell-based; settings: Enterococcus faecalis, 18 h, no cysteine stated
Procedure: as §4

E. coli ATCC 25922 = assay: MIC, microtiter broth dilution; type: cell-based; settings: Escherichia coli, ATCC25922, 18 h, no cysteine stated
Procedure: as §4

[6] = system: S. aureus CI 2371 (methicillin-resistant); assay: MIC, microtiter broth dilution; type: cell-based; settings: Staphylococcus aureus, 18 h, no cysteine stated
Procedure: as §4

[7] = system: Coagulase negative staphylococci CI 664; assay: MIC, microtiter broth dilution; type: cell-based; settings: 18 h, no cysteine stated
Procedure: as §4

[8] = system: S. aureus IVES 2943 (methicillin-resistant); assay: MIC, microtiter broth dilution; type: cell-based; settings: Staphylococcus aureus, 18 h, no cysteine stated
Procedure: as §4

[9] = system: S. haemolyticus AVAH 88-3; assay: MIC, microtiter broth dilution; type: cell-based; settings: Staphylococcus haemolyticus, AVAH883, 18 h
Procedure: as §4

E. faecalis ATCC 29212 = assay: MIC, microtiter broth dilution; type: cell-based; settings: Enterococcus faecalis, ATCC29212, 18 h, no cysteine stated
Procedure: as §4

S. marcescens FPOR 87-33 = assay: MIC, microtiter broth dilution; type: cell-based; settings: Serratia marcescens, FPOR8733, 18 h, no cysteine stated
Procedure: as §4

[10] = system: E. coli S30 Ribosomes, tetM Variant (tetM protected ribosomes); assay: In vitro protein translation with E. coli S30 ribosomes, tetM variant; type: biochemical
Procedure: as §1, §2, §3

[11] = system: tetracycline sensitive and resistant Gram-positive and Gram-negative bacteria; assay: In vitro antibacterial evaluation, statements on the whole panel; type: cell-based; settings: in the presence of cysteine versus without
Procedure: as §4

[12] = Wild Type S30 no DTT, 1.0 mg/ml
[13] = Wild Type S30 no DTT, 1:2 Dilution
[14] = Wild Type S30 no DTT, 1:4 Dilution
[15] = Wild Type S30 no DTT, 1:8 Dilution
[16] = Wild Type S30 no DTT, 1:16 Dilution
[17] = Wild Type S30 no DTT, 1:32 Dilution
[18] = Wild Type S30 no DTT, 1:64 Dilution
[19] = Wild Type S30 with DTT, 1.0 mg/ml
[20] = Wild Type S30 with DTT, 1:2 Dilution
[21] = Wild Type S30 with DTT, 1:4 Dilution
[22] = Wild Type S30 with DTT, 1:8 Dilution
[23] = Wild Type S30 with DTT, 1:16 Dilution
[24] = Wild Type S30 with DTT, 1:32 Dilution
[25] = Wild Type S30 with DTT, 1:64 Dilution
[26] = coupled transcription and translation system
[27] = tetM S30 with DTT, 1:2 Dilution
[28] = tetM S30 with DTT, 1:4 Dilution
[29] = tetM S30 with DTT, 1:8 Dilution
[30] = tetM S30 with DTT, 1:16 Dilution
[31] = tetM S30 with DTT, 1:32 Dilution
[32] = tetM S30 with DTT, 1:64 Dilution

## CN(C)c1ccc(O)c2c1C[C@H]1C[C@H]3[C@H](N(C)C)C(O)=C(C(N)=O)C(=O)[C@@]3(O)C(O)=C1C2=O [B, 7-(Dimethylamino)-6-demethyl-6-deoxytetracycline hydrochloride]
[1]; [12]
  % Inhibition: 87%
  Counts: 57696
[1]; [13]
  % Inhibition: 83%
  Counts: 76804
[1]; [14]
  % Inhibition: 88%
  Counts: 53400
[1]; [15]
  % Inhibition: 64%
  Counts: 162405
[1]; [16]
  % Inhibition: 53%
  Counts: 213077
[1]; [17]
  % Inhibition: 33%
  Counts: 306650
[1]; [18]
  % Inhibition: 0%
  Counts: 457601
[1]; [19]
  % Inhibition: 93%
  Counts: 58885
[1]; [20]
  % Inhibition: 91%
  Counts: 78961
[1]; [21]
  % Inhibition: 87%
  Counts: 111971
[1]; [22]
  % Inhibition: 83%
  Counts: 149792
[1]; [23]
  % Inhibition: 76%
  Counts: 207484
[1]; [24]
  % Inhibition: 67%
  Counts: 289304
[1]; [25]
  % Inhibition: 41%
  Counts: 518601
[1]; [26]
  inhibition of protein synthesis on wild type ribosomes (in words): effectively inhibit protein synthesis
[2]
  MIC: 0.015 µg/mL
[3]
  MIC: 8 µg/mL
[4]
  MIC: 0.008 µg/mL
[5]
  MIC: 4 µg/mL
E. coli ATCC 25922
  MIC: 0.25 µg/mL
[6]
  MIC: 4 µg/mL
[7]
  MIC: 0.015 µg/mL
[8]
  MIC: 1 µg/mL
[9]
  MIC: 0.12 µg/mL
E. faecalis ATCC 29212
  MIC: 0.25 µg/mL
S. marcescens FPOR 87-33
  MIC: 2 µg/mL
[10]; [26]
  inhibition of protein synthesis on tetM protected ribosomes (in words): unable to inhibit protein synthesis
[10]; tetM S30 no DTT, 1.0 mg/ml
  % Inhibition: 0%
  Counts: 281528
[10]; tetM S30 no DTT, 1:2 Dilution
  % Inhibition: 0%
  Counts: 258633
[10]; tetM S30 no DTT, 1:4 Dilution
  % Inhibition: 0%
  Counts: 248904
[10]; tetM S30 no DTT, 1:8 Dilution
  % Inhibition: 0%
  Counts: 289595
[10]; tetM S30 no DTT, 1:16 Dilution
  % Inhibition: 0%
  Counts: 287498
[10]; tetM S30 no DTT, 1:32 Dilution
  % Inhibition: 0%
  Counts: 262329
[10]; tetM S30 no DTT, 1:64 Dilution
  % Inhibition: 0%
  Counts: 249242
[10]; tetM S30 with DTT, 1.0 mg/ml
  % Inhibition: 17%
  Counts: 371475
[10]; [27]
  % Inhibition: 26%
  Counts: 331439
[10]; [28]
  % Inhibition: 17%
  Counts: 373168
[10]; [29]
  % Inhibition: 6%
  Counts: 421533
[10]; [30]
  % Inhibition: 0%
  Counts: 493679
[10]; [31]
  % Inhibition: 0%
  Counts: 490283
[10]; [32]
  % Inhibition: 0%
  Counts: 452837
[11]
  Antibacterial potency in the presence of cysteine: not enhanced
